# Measured values from article PMC3272775 (Journal of Medicinal Chemistry, 2012).
# “Also recorded” adds a separate entry of the source. Structures can show the parent of a compound that is named as a salt.
# Columns and labels:
# [1] = system: α4β2-nAChR from rat cerebral cortical membranes; settings: ref [39], [40]; cited from earlier work
# [2] = chronic and neuropathic pain; ref [45], [46]; cited from earlier work
# [3] = target: α1β1γδ-nAChR (Homo sapiens, UniProt P02708+P07510+Q07001); assay: 86Rb+ efflux assay in TE671/RD cells; format: cell-based
# α1β1γδ-nAChR, sequence (P02708 21-457): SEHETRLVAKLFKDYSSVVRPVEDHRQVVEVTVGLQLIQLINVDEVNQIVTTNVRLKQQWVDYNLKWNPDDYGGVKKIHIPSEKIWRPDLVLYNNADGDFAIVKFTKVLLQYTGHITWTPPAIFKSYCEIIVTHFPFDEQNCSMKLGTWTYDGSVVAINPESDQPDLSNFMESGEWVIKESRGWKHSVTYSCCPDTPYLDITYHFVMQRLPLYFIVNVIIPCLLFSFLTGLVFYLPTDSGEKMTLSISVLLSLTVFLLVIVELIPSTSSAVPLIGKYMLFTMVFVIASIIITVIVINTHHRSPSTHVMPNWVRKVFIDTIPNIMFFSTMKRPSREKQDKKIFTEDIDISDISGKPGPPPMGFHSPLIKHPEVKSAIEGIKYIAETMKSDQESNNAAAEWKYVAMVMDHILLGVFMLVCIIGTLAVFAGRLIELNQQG
# α1β1γδ-nAChR, sequence (P11230 24-501 partner): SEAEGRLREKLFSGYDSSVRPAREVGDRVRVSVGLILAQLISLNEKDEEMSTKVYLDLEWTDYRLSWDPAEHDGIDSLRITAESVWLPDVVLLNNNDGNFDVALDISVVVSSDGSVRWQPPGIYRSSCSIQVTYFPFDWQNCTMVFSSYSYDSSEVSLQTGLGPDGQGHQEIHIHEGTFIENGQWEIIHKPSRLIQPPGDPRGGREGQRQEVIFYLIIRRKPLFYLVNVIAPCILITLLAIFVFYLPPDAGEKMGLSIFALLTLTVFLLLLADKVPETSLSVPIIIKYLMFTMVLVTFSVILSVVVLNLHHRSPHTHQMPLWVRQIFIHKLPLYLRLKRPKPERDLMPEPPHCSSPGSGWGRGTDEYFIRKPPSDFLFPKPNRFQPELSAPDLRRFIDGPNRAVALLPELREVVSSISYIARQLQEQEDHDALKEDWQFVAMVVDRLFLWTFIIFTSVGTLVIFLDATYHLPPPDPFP
# α1β1γδ-nAChR, sequence (P07510 23-517): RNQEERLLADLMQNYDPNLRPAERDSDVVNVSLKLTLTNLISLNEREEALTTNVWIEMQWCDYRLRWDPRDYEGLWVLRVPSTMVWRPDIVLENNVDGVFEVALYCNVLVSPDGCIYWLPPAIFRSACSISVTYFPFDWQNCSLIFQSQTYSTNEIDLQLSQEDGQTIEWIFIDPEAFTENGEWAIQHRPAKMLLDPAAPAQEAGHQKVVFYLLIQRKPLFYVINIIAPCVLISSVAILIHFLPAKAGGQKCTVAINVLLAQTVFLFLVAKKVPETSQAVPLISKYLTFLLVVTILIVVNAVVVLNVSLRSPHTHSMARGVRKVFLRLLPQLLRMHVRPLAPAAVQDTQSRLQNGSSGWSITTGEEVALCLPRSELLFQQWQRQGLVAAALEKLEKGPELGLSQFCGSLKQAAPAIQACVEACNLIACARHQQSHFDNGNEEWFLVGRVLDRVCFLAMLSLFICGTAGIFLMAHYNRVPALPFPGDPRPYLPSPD
# α1β1γδ-nAChR, sequence (Q07001 22-517): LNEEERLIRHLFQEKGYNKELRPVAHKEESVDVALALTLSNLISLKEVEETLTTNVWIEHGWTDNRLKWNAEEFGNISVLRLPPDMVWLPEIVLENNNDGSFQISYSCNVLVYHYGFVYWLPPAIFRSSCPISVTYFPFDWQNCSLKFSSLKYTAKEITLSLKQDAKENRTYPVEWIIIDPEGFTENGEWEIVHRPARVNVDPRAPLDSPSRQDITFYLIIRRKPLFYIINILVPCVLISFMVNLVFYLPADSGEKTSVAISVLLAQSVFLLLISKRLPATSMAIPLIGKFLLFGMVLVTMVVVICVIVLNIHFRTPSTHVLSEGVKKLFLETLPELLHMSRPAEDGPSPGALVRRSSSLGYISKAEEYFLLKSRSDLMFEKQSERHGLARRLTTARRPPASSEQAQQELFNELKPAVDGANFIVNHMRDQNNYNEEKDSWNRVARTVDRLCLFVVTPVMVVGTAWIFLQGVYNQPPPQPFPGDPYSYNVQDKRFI
# [4] = target: α3β4*-nAChR (Homo sapiens, UniProt P30926+P32297); assay: 86Rb+ efflux assay in SH-SY5Y cells; format: cell-based; settings: efficacies similar to that of carbamylcholine
# α3β4*-nAChR, sequence (P32297 32-505): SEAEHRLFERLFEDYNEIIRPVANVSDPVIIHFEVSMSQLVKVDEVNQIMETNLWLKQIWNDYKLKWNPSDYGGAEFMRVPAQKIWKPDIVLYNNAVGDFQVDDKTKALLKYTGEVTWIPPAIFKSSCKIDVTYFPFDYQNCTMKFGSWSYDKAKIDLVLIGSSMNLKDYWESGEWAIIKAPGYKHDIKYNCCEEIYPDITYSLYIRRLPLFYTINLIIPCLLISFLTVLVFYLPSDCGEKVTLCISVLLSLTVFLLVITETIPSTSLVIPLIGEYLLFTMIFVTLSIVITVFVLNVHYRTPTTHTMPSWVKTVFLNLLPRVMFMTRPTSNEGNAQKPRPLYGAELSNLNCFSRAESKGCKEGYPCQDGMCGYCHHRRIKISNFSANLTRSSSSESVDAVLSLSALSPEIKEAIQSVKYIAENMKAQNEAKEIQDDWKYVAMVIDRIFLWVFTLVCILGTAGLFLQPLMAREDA
# α3β4*-nAChR, sequence (P30926 22-498): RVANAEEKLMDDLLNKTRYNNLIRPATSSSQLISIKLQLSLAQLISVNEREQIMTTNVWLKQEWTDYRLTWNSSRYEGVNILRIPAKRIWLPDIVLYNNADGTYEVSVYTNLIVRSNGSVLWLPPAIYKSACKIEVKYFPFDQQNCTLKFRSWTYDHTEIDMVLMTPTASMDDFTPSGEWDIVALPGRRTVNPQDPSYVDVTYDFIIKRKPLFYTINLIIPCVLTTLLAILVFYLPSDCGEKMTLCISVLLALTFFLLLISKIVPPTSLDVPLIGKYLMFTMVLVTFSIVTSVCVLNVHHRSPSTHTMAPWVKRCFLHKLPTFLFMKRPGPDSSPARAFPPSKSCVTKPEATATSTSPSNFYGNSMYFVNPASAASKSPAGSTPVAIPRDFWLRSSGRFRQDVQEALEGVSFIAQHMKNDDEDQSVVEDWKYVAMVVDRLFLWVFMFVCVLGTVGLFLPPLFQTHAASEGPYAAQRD
# [5] = target: CYP3A4 (Homo sapiens, UniProt P08684); assay: Multiple CYP inhibition assay in human liver microsomes, CYP3A4; format: in vitro ADME
# [6] = system: about 45 other CNS neurotransmitter receptors and transporters; assay: Broad-range screening; format: binding; settings: 10 μM; about 45 receptors and transporters
# [7] = target: CYP2C9 (Homo sapiens, UniProt P11712); assay: Multiple CYP inhibition assay in human liver microsomes, CYP2C9; format: in vitro ADME
# [8] = target: human α4β2-nAChR (Homo sapiens, UniProt P17787+P43681); assay: 86Rb+ efflux assay in SH-EP1-hα4β2 cells; format: cell-based; settings: efficacies similar to that of carbamylcholine
# human α4β2-nAChR, sequence (P43681 29-627 limits assumed): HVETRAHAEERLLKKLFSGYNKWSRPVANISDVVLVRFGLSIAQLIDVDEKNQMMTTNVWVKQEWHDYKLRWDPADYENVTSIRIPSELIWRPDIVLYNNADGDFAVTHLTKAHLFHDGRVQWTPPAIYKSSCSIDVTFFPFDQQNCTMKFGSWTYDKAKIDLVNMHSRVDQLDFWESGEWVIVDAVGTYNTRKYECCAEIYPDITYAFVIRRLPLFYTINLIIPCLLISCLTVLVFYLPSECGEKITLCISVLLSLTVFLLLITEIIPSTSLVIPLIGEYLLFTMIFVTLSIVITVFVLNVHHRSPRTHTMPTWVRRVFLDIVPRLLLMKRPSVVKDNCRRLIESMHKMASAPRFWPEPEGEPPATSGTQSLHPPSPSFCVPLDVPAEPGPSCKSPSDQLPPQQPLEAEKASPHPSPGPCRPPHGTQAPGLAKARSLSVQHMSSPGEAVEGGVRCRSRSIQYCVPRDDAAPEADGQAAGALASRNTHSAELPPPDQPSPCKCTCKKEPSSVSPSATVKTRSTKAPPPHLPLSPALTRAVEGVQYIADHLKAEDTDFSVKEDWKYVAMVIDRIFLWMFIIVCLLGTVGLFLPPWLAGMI
# human α4β2-nAChR, sequence (P17787 26-502): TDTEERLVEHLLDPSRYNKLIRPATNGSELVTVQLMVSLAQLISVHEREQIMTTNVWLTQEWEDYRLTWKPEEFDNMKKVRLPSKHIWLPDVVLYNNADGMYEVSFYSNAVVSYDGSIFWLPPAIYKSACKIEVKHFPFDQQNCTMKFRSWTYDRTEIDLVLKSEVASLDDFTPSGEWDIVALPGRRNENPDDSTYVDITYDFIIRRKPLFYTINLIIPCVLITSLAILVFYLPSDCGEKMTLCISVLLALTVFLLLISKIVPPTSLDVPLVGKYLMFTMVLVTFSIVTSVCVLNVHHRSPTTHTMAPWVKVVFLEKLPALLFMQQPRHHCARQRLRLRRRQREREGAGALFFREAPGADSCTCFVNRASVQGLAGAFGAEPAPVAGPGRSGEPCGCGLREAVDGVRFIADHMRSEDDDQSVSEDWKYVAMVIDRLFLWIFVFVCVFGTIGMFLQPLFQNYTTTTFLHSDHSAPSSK
# [9] = system: immobility in the mouse forced swim test; assay: Mouse forced swim test; format: in vivo
# [10] = target: T1, CYP2B6 (Homo sapiens, UniProt P20813); assay: Multiple CYP inhibition assay in human liver microsomes, CYP2B6; format: in vitro ADME
# T1 sequence (P20813 1-491): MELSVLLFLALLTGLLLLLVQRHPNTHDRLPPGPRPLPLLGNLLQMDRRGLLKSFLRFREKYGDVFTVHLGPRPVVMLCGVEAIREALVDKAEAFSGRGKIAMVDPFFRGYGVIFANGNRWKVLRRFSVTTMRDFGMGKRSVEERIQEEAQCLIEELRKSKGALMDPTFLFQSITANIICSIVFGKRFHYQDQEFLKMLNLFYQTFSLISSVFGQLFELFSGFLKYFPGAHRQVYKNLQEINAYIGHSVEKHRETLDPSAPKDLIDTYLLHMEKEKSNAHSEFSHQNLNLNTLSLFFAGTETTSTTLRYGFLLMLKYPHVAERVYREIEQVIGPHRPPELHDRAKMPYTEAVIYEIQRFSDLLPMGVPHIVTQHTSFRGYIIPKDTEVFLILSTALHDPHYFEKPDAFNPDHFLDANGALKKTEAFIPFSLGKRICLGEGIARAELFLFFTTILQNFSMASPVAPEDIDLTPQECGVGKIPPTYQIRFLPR
# [11] = target: CYP2D6 (Homo sapiens, UniProt P10635); assay: Multiple CYP inhibition assay in human liver microsomes, CYP2D6; format: in vitro ADME
# CYP2D6, sequence (P10635 whole entry): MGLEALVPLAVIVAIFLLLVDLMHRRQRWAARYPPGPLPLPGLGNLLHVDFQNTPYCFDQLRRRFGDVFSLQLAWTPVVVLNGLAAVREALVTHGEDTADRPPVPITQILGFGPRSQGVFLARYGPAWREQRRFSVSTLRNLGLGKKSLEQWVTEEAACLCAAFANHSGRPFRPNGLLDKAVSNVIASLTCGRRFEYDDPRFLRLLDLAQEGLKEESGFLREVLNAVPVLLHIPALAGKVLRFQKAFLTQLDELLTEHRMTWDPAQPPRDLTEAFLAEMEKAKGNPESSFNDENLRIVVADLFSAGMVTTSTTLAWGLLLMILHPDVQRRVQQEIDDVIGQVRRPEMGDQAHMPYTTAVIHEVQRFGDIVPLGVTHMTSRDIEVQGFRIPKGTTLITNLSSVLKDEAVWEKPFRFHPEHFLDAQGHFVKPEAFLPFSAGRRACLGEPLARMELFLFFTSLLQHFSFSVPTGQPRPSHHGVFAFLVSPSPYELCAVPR
# [12] = target: CYP2C19 (Homo sapiens, UniProt P33261); assay: Multiple CYP inhibition assay in human liver microsomes, CYP2C19; format: in vitro ADME
# CYP2C19, sequence (P33261 whole entry): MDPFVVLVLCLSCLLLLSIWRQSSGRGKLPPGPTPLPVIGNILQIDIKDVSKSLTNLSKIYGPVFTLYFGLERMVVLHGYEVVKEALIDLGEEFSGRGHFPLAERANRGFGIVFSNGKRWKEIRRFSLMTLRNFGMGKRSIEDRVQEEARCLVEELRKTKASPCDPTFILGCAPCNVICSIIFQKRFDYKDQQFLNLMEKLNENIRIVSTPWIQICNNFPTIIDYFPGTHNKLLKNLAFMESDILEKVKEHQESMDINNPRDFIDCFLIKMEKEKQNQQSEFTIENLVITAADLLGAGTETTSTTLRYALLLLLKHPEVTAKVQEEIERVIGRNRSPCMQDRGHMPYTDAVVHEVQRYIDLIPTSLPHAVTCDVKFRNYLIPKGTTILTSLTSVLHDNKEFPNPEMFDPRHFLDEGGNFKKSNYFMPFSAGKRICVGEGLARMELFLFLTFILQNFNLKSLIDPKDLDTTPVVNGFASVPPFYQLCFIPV
# [13] = target: T2, CYP1A2 (Homo sapiens, UniProt P05177); assay: Multiple CYP inhibition assay in human liver microsomes, CYP1A2; format: in vitro ADME
# T2 sequence (P05177 1-516): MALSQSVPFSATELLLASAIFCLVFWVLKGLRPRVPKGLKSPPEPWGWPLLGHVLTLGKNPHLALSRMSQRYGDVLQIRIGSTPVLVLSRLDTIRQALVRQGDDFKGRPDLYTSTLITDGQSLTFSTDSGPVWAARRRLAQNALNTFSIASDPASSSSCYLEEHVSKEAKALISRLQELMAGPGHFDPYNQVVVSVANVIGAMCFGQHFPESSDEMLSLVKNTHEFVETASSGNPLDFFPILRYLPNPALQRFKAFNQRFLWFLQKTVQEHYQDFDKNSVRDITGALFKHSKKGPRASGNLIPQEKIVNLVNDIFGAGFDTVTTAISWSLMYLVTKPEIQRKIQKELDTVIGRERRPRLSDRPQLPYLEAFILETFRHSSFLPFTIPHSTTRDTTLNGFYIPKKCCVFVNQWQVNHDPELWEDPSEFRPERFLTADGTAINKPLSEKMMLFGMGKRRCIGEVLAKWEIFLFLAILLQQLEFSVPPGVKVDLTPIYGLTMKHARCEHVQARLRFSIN
smiles,measurement,setting,value
"Cc1cc([C@H]2C[C@@H]3CC[C@H]2N3)on1 [Compound 7, epiboxidine]",Fold less potent than compound 4 in the displacement of [3H]nicotine,[1],approximately 10 fold
same,Fold more potent than compound 6 in the displacement of [3H]nicotine,[1],17 fold
Clc1ccc(OC[C@H]2CCN2)cn1 [Compound 10],Potency relative to morphine,[2],50 times
"FCc1cc(OC[C@@H]2CCN2)on1 [Compound 39, 5-[(2(S)-Azetidinyl)methoxy]-3-(fluoromethyl)isoxazole Trifluoroacetate]",Activity at the α1β1γδ-nAChR,[3],little activity; also recorded: inactive
"Cc1cc(OC[C@@H]2CCN2)on1 [Compound 43, 5-[(2(S)-Azetidinyl)methoxy]-3-methylisoxazole]",Agonist activity at α3β4*-nAChRs,[4],full agonist activity
same,"CYP3A4 activity, % of the control",[5],≥ 70%
same,Inhibition in the preliminary binding screen,[6],≤ 50%
same,"CYP2C9 activity, % of the control",[7],≥ 70%
same,Agonist activity at α4β2-nAChRs,[8],full agonist activity
same,Immobility in the forced swim test,"[9]; 1 mg/kg ip, 30 min before test, 6 min trial, vs vehicle",reduced immobility
same,Immobility in the forced swim test,"[9]; 1 mg/kg orally, 30 min before test, 6 min trial",inactive
same,Immobility in the forced swim test,"[9]; 5 mg/kg ip, 30 min before test, 6 min trial, vs vehicle",reduced immobility
same,"CYP2B6 activity, % of the control",[10],≥ 70%
same,Activity at the α1β1γδ-nAChR,[3],little activity; also recorded: inactive
same,"CYP2D6 activity, % of the control",[11],≥ 70%
same,"CYP2C19 activity, % of the control",[12],≥ 70%
same,"CYP1A2 activity, % of the control",[13],≥ 70%
"CN[C@H]1CC[C@@H](c2ccc(Cl)c(Cl)c2)c2ccccc21 [sertraline, reference compound]",Immobility in the forced swim test,"[9]; positive control, 10 mg/kg (10 or 20 mg/kg in method), ip or orally",expected decrease in immobility
